The record followed here is patent US9447091B2, “Protein kinase inhibitors” (Orion Corporation, priority 2011, dated 2016).

One assay concerns the target FGFR1 kinase (Homo sapiens (Human), UniProt P11362). Briefly: FGFR1 TR-FRET kinase assay. In kind it is biochemical. The conditions noted are these: for IC50: 13 μM ATP, read-out: IC50 of FGFR1 inhibition. On the procedure:
Compounds were screened in the TR-FRET assay with FGFR1 kinase. 5 ng of FGFR1 [Upstate, USA] kinase was used for assay. The compound was incubated with the kinase for 30 minutes at RT. After the incubation, substrate mix [40 nM Ultra light poly GT (Perkin Elmer, USA) and 13 μM ATP (Sigma)] was added. The above reaction was stopped by the addition of 40 mM EDTA after the […] kinase reaction. The Eu-labelled antiphospho-tyrosine antibody [Perkin Elmer, USA] was added at 0.5 nM and the fluorescence emission at 615 nm/665 nm [excitation at 340 nm] was measured. The compounds were initially screened at 100 nM and 1 μM concentrations. The compounds with >50% inhibition at 100 nM of FGFR1 were taken for the full dose response studies. The final DMSO concentration in the assay was 1%. For IC50 determination, ⅓^rd serial dilution was made from the 20 mM DMSO stock solution. 2 μl of these were transferred to the test wells containing 20 μl of the reaction mixture [total reaction volume 20 μl]. The fluorescence was measured in Perkin Elmer Wallac 1420 Multilabel Counter Victor 3. The IC50 was determined by fitting the dose response data to sigmoidal curve fitting equation using GraphPad Prism software V5.
In general terms: In TR-FRET formats the signal depends on donor and acceptor labels being close together.

The target in another assay is c-Met kinase (Homo sapiens (Human), UniProt P08581). As to the kind of experiment: c-Met TR-FRET kinase assay. The conditions noted are these: 1000 nM compound. In kind it is biochemical. On the procedure:
Compounds were screened in the TR-FRET assay with c-Met kinase. 0.1 ng of c-Met [expressed in-house] kinase was used for assay. The compound was incubated with the kinase for 60 min at RT. After the incubation, substrate mix [40 nM Ultra light poly GT (Perkin Elmer, USA) and 10 μM ATP (Sigma)] was added. The above reaction was stopped by the addition of 40 mM EDTA after the 30 min kinase reaction. The Eu-labelled antiphospho-tyrosine antibody [Perkin Elmer, USA] was added at 0.5 nM and the fluorescence emission at 615 nm/665 nm [excitation at 340 nm] was measured. The compounds were initially screened at 100 nM and 1 μM concentrations. The compounds with >50% inhibition at 100 nM of c-Met were taken for the full dose response studies. The final DMSO concentration in the assay was 1%. For IC50 determination, ⅓rd serial dilution was made from the 20 mM DMSO stock solution. 2 μl of these were transferred to the test wells containing 20 μl reaction mixture [total reaction volume 20 μl]. The fluorescence was measured in Perkin Elmer Wallac 1420 Multilabel Counter Victor 3. The IC50 was determined by fitting the dose response data to sigmoidal curve fitting equation using GraphPad Prism software V5.

Chain of FGFR1 kinase (P11362 22-822): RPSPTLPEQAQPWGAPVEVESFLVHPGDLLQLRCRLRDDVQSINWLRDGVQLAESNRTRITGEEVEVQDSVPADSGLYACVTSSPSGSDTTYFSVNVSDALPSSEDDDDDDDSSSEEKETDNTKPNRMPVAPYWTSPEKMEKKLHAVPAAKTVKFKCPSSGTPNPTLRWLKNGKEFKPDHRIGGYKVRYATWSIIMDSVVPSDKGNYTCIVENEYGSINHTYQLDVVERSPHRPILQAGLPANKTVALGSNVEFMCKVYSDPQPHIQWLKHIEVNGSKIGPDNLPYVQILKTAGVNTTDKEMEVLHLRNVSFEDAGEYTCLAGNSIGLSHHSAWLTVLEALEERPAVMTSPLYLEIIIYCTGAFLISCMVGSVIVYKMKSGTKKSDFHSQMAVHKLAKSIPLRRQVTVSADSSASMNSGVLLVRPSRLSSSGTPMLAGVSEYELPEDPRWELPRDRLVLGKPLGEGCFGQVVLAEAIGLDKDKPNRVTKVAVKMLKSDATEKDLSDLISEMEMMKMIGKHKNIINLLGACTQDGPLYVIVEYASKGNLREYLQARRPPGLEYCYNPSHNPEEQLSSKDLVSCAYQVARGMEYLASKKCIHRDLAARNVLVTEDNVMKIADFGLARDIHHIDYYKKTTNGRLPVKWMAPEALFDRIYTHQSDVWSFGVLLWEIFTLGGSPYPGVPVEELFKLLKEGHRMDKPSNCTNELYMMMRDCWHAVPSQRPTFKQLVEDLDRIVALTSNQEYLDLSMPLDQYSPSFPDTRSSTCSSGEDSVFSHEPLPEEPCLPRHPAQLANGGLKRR
Chain of c-Met kinase (P08581 25-1390): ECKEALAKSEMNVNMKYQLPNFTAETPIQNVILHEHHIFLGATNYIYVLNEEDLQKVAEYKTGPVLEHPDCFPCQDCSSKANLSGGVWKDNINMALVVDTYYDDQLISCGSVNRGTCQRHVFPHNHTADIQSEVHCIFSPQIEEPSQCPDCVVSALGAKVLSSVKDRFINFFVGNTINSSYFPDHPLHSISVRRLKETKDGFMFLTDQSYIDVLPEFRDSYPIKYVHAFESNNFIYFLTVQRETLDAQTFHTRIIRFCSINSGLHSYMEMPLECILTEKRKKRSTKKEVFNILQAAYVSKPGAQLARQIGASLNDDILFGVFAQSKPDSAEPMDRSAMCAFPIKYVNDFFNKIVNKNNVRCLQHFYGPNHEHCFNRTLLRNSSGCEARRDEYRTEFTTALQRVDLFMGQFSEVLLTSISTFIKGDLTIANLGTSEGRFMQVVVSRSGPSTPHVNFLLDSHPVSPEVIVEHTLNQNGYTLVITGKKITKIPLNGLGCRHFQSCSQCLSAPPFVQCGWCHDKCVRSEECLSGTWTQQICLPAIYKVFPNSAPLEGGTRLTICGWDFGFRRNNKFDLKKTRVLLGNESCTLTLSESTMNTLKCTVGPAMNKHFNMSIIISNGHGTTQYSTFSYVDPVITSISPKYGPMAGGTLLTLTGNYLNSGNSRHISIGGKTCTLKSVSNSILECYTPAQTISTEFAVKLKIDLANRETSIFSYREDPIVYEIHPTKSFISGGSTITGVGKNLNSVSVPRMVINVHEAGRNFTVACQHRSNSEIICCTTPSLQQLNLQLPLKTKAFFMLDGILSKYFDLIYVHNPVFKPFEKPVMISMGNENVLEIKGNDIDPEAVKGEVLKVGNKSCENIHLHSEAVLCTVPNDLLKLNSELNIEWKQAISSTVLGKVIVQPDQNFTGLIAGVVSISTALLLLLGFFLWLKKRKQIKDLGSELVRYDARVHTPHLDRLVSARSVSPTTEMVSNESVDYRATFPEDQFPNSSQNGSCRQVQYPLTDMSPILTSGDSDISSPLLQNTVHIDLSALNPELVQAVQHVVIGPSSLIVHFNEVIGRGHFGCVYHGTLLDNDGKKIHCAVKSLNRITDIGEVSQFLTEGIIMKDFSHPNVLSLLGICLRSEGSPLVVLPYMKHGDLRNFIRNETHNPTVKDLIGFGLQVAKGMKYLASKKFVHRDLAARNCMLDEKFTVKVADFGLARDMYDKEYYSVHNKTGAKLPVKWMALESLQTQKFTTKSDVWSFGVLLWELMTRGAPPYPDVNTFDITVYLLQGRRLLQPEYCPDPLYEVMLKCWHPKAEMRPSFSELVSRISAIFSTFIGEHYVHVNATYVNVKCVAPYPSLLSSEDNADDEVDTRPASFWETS

In the case of `Cn1cc(-c2ccc3c(c2)ncn3-c2cc(NS(=O)(=O)C3CC3)cc(-c3ccc(F)cc3F)c2)cn1` [Example 5, N-(2′,4′-difluoro-5-(5-(1-methyl-1H-pyrazol-4-yl)-1H-benzo[d]imidazol-1-yl)-biphenyl-3-yl)cyclopropanesulfonamide], the inhibition (commonly the percentage by which the read-out fell short of the control) at 1 µM against FGFR1 kinase (1000 nM compound) is 95%; at c-Met kinase, 7%. Further, at FGFR1 kinase, the half-inhibitory concentration (IC50) (usually the point on the concentration scale where inhibition reaches its midpoint) was determined as 12 nM.

As to `CC(=O)Nc1cc(-c2ccc(F)cc2F)cc(-n2cnc3cc(-c4cnco4)ccc32)c1` [Example 22, N-(2′,4′-difluoro-5-(5-(oxazol-5-yl)-1H-benzo[d]imidazol-1-yl)biphenyl-3-yl)-acetamide], the inhibition at 1 µM on FGFR1 kinase (1000 nM compound) worked out at 99%; against c-Met kinase, 5%. The half-maximal inhibitory concentration (IC50) at FGFR1 kinase was 3.8 nM.

For `CC(C)S(=O)(=O)Nc1cc(-c2ccc(F)cc2F)cc(-n2cnc3cc(-c4cnco4)ccc32)c1` [Example 25, N-(2′,4′-difluoro-5-(5-(oxazol-5-yl)-1H-benzo[d]imidazol-1-yl)biphenyl-3-yl)-propane-2-sulfonamide], the inhibition at 1 µM against FGFR1 kinase (1000 nM compound) was determined as 93%; at c-Met kinase, 12%. Besides, at FGFR1 kinase, the IC50 is 34 nM.

`O=S(=O)(Nc1cc(-c2ccc(F)cc2F)cc(-n2cnc3cc(-c4cnco4)ccc32)c1)c1ccccc1` [Example 26, N-(2′,4′-difluoro-5-(5-(oxazol-5-yl)-1H-benzo[d]imidazol-1-yl)biphenyl-3-yl)-benzenesulfonamide]: the inhibition at 1 µM on FGFR1 kinase (1000 nM compound) is 93%; on c-Met kinase, 2%. The concentration for half-maximal inhibition (IC50) at FGFR1 kinase was found to be 21 nM.

As to `CCS(=O)(=O)Nc1cc(-c2ccc(F)cc2F)cc(-n2cnc3cc(-n4cccn4)ccc32)c1` [Example 30, N-(5-(5-(1H-pyrazol-1-yl)-1H-benzo[d]imidazol-1-yl)-2′,4′-difluorobiphenyl-3-yl)ethanesulfonamide], the inhibition at 1 µM against FGFR1 kinase (1000 nM compound) was determined as 94%; against c-Met kinase, 1%. Further, at FGFR1 kinase, the IC50 was 16 nM.

As for `CC(=O)Nc1cc(-c2ccc(F)cc2F)cc(-n2cnc3cc(C4=NCCN4)ccc32)c1` [Example 169, N-(5-(5-(4,5-dihydro-1H-imidazol-2-yl)-1H-benzo[d]imidazol-1-yl)-2′,4′-difluoro-[1,1′-biphenyl]-3-yl)acetamide], on FGFR1 kinase (1000 nM compound), the inhibition at 1 µM stood at 89%. Besides, the 50% inhibitory concentration (IC50) on FGFR1 kinase was found to be 94 nM.

At FGFR1 kinase (1000 nM compound), `CC(=O)Nc1cc(-c2ccc(F)cc2)cc(-n2cnc3cc(-c4ccc(F)nc4)ccc32)c1` [Example 170, N-(4′-fluoro-5-(5-(6-fluoropyridin-3-yl)-1H-benzo[d]imidazol-1-yl)-[1,1′-biphenyl]-3-yl)acetamide] gave an inhibition at 1 µM of 92%. Moreover, the IC50 at FGFR1 kinase amounted to 59 nM.

With `CC(=O)Nc1cc(-c2ccc(F)cc2F)cc(-n2cnc3cc(-c4ccc(F)nc4)cnc32)c1` [Example 178, N-(2′,4′-difluoro-5-(6-(6-fluoropyridin-3-yl)-3H-imidazo[4,5-b]pyridin-3-yl)-[1,1′-biphenyl]-3-yl)acetamide], the inhibition at 1 µM at FGFR1 kinase (1000 nM compound) was found to be 86%. At FGFR1 kinase, the IC50 came to 14.9 nM.

On to `COc1ccc(-c2cc(NC(C)=O)cc(-n3cnc4cc(-c5cnn(C)c5)ccc43)c2)c(F)c1` [Example 190, N-(2′-fluoro-4′-methoxy-5-(5-(1-methyl-1H-pyrazol-4-yl)-1H-benzo[d]imidazol-1-yl)-[1,1′-biphenyl]-3-yl)acetamide], for which, at FGFR1 kinase (1000 nM compound), the inhibition at 1 µM is 96%. In addition, the concentration for half-maximal inhibition (IC50) at FGFR1 kinase was found to be 4.3 nM.

As to `CC(C)n1cc(-c2ccc3c(c2)ncn3-c2cc(NS(=O)(=O)C3CC3)cc(-c3ccc(F)cc3F)c2)cn1` [Example 204, N-(2′,4′-difluoro-5-(5-(1-isopropyl-1H-pyrazol-4-yl)-1H-benzo[d]imidazol-1-yl)-[1,1′-biphenyl]-3-yl)cyclopropanesulfonamide], testing at 1 µM against FGFR1 kinase (1000 nM compound) gave an inhibition of 98%. Also, the IC50 at FGFR1 kinase was 20 nM.

`CNS(=O)(=O)N(C)c1cc(-c2ccc(F)cc2F)cc(-n2cnc3cc(-c4cnn(C(C)C)c4)cnc32)c1` [Example 217, N-(2′,4′-difluoro-5-(6-(1-isopropyl-1H-pyrazol-4-yl)-3H-imidazo[4,5-b]pyridin-3-yl)-[1,1′-biphenyl]-3-yl)-N,N′-dimethylsulfuric diamide] had an inhibition at 1 µM on FGFR1 kinase (1000 nM compound) of 91%. Moreover, the IC50 on FGFR1 kinase turned out to be 10.4 nM.

`CC(=O)Nc1cc(-c2ccc(F)cc2)cc(-n2cnc3cc(-c4cnn(CCC(C)(C)O)c4)ccc32)c1` [Example 220, N-(4′-fluoro-5-(5-(1-(3-hydroxy-3-methylbutyl)-1H-pyrazol-4-yl)-1H-benzo[d]-imidazol-1-yl)-[1,1′-biphenyl]-3-yl) acetamide] came in with an inhibition at 1 µM on FGFR1 kinase (1000 nM compound) of 97%. Also, the IC50 on FGFR1 kinase came to 3.4 nM.

For `Cn1cc(-c2ccc3c(c2)ncn3-c2cc(NC(=O)Cn3cncn3)cc(-c3ccc(F)cc3F)c2)cn1` [Example 241, N-(2′,4′-difluoro-5-(5-(1-methyl-1H-pyrazol-4-yl)-1H-benzo[d]imidazol-1-yl)-[1,1′-biphenyl]-3-yl)-2-(1H-1,2,4-triazol-1-yl) acetamide], on FGFR1 kinase (1000 nM compound), the “Inhibition (%) of FGFR1 at 1000 nM” value came out at 97%. Besides, at FGFR1 kinase, the IC50 came to 2.9 nM.

`Cn1cc(-c2cnc3c(c2)ncn3-c2cc(NS(=O)(=O)NC3CC3)cc(-c3ccc(F)cc3F)c2)cn1` [Example 244, N-cyclopropyl-N′-(2′,4′-difluoro-5-(6-(1-methyl-1H-pyrazol-4-yl)-3H-imidazo[4,5-b]pyridin-3-yl)-[1,1′-biphenyl]-3-yl)-sulfuric diamide] registered an inhibition at 1 µM on FGFR1 kinase (1000 nM compound) of 98%. Besides, on FGFR1 kinase, the half-maximal inhibitory concentration (IC50) was determined as 14 nM.

Turning to `O=C(CN1CCCCC1)Nc1cc(-c2ccc(F)cc2F)cc(-n2cnc3cc(-n4cccn4)ccc32)c1` [Example 259, N-(5-(5-(1H-pyrazol-1-yl)-1H-benzo[d]imidazol-1-yl)-2′,4′-difluoro-[1,1′-biphenyl]-3-yl)-2-(piperidin-1-yl)acetamide], the inhibition at 1 µM on FGFR1 kinase (1000 nM compound) was determined as 92%. For the same compound, the IC50 on FGFR1 kinase stood at 45 nM.

At FGFR1 kinase (1000 nM compound), `Cn1cc(-c2ccc3c(c2)ncn3-c2cc(Nc3ncccn3)cc(-c3ccc(F)cc3F)c2)cn1` [Example 280, N-(2′,4′-difluoro-5-(5-(1-methyl-1H-pyrazol-4-yl)-1H-benzo[d]imidazol-1-yl)-[1,1′-biphenyl]-3-yl)pyrimidin-2-amine] had an inhibition at 1 µM of 80%. Besides, the IC50 on FGFR1 kinase was found to be 90 nM.

On FGFR1 kinase (1000 nM compound), `Cn1cc(-c2ccc3c(c2)ncn3-c2cc(Nc3nccs3)cc(-c3ccc(F)cc3F)c2)cn1` [Example 281, N-(2′,4′-difluoro-5-(5-(1-methyl-1H-pyrazol-4-yl)-1H-benzo[d]imidazol-1-yl)-[1,1′-biphenyl]-3-yl) thiazol-2-amine] yielded an inhibition at 1 µM of 96%. For the same compound, the IC50 on FGFR1 kinase is 9 nM.

Regarding `O=c1ccc(-c2ccc3c(c2)ncn3-c2cc(NS(=O)(=O)C3CC3)cc(-c3ccc(F)cc3F)c2)c[nH]1` [Example 289, N-(2′,4′-difluoro-5-(5-(6-oxo-1,6-dihydropyridin-3-yl)-1H-benzo[d]imidazol-1-yl)-[1,1′-biphenyl]-3-yl)cyclopropanesulfonamide], the inhibition at 1 µM at FGFR1 kinase (1000 nM compound) turned out to be 94%. For the same compound, the concentration for half-maximal inhibition (IC50) at FGFR1 kinase stood at 32 nM.

Compound `CS(=O)(=O)Nc1cc(-c2ncccc2F)cc(-n2cnc3cc(-c4cnn(CCN5CCOCC5)c4)ccc32)c1` [Example 294, N-(3-(3-fluoropyridin-2-yl)-5-(5-(1-(2-morpholinoethyl)-1H-pyrazol-4-yl)-1H-benzo[d]imidazol-1-yl)phenyl)methane sulphonamide] had an inhibition at 1 µM against FGFR1 kinase (1000 nM compound) of 99%. At FGFR1 kinase, the half-maximal inhibitory concentration (IC50) is 9.3 nM.

`CN1CCC(C(=O)Nc2cc(-c3ccc(F)cc3F)cc(-n3cnc4cc(-c5cnn(C)c5)cnc43)c2)CC1` [Example 319, N-(2′,4′-difluoro-5-(6-(1-methyl-1H-pyrazol-4-yl)-3H-imidazo[4,5-b]pyridin-3-yl)-[1,1′-biphenyl]-3-yl)-1-methylpiperidine-4-carboxamide] yielded an inhibition at 1 µM on FGFR1 kinase (1000 nM compound) of 97%. Besides, on FGFR1 kinase, the IC50 was 18 nM.

The compound `O=S(=O)(Nc1cc(C2=CC=C(F)CC2F)cc(-n2cnc3cc(N4CCC(O)C4)ccc32)c1)C1CC1` (centres unmarked) [Example 322, N-(2′,4′-difluoro-5-(5-(3-hydroxypyrrolidin-1-yl)-1H-benzo[d]imidazol-1-yl)-2′,3′-dihydro-[1,1′-biphenyl]-3-yl)cyclopropanesulfonamide] showed an inhibition at 1 µM against FGFR1 kinase (1000 nM compound) of 92%. Besides, the IC50 on FGFR1 kinase came to 65.8 nM.
